# Laboratory results as given in patent publication US8133913B2, “Substituted indeno [1,2-b]indole derivatives as novel inhibitors of protein kinase CK2 and their use as tumor therapeutic agents, cytostatics and diagnostic aids” (Heinrich-Heine Universitat Dusseldof, priority 2006, dated 2012).
# What was measured:
# [1] = target: T1, human CK2 protein kinase (holoenzyme) (Homo sapiens, UniProt P68400); test: Inhibition of recombinant human CK2 protein kinase (holoenzyme), radiometric filter assay with peptide […]; format: biochemical
# T1 construct: made in house; host or cells: E. coli BL21(DE3), pT7-7 or bicistronic pET11d-CK2α, β
# LCLC = test: Proliferation of tumor cell lines (Bracht et al.); format: cell-based; conditions: read-out: IC50 (μM) Mean, inhibition of cell proliferation
# [2] = target: T2, CK2-alpha1 (catalytic subunit of CK2) (Homo sapiens, UniProt P68400); test: Radiometric protein kinase assay (33PanQinase Activity Assay); format: biochemical; conditions: 1 μM ATP, substrate casein
# T2 construct: made in house; host or cells: Sf9 insect cells, baculovirus
# 5637 = test: Proliferation of tumor cell lines (Bracht et al.); format: cell-based; conditions: for activity at 20 µM: 5637, tested at 20 μM, read-out: T/C (%) Mean
# PDGFR-beta = target: T3, PDGFR-beta (Homo sapiens, UniProt P09619); test: Radiometric protein kinase assay (33PanQinase Activity Assay); format: biochemical; conditions: 1 μM ATP
# T3 construct: made in house; host or cells: Sf9 insect cells, baculovirus
# RT-4 = test: Proliferation of tumor cell lines (Bracht et al.); format: cell-based; conditions: Homo sapiens, read-out: IC50 (μM) Mean, inhibition of cell proliferation
# MCF-7 = test: Proliferation of tumor cell lines (Bracht et al.); format: cell-based; conditions: Homo sapiens, MCF7, read-out: IC50 (μM) Mean, inhibition of cell proliferation
# SISO = test: Proliferation of tumor cell lines (Bracht et al.); format: cell-based; conditions: for activity at 20 µM: tested at 20 μM, read-out: T/C (%) Mean
# EGF-R = target: T4, EGF-R (Homo sapiens, UniProt P00533); test: Radiometric protein kinase assay (33PanQinase Activity Assay); format: biochemical; conditions: 1 μM ATP
# T4 construct: made in house; host or cells: Sf9 insect cells, baculovirus
# A427 = test: Proliferation of tumor cell lines (Bracht et al.); format: cell-based; conditions: Homo sapiens, A-427, read-out: IC50 (μM) Mean, inhibition of cell proliferation
# DAN-G = test: Proliferation of tumor cell lines (Bracht et al.); format: cell-based; conditions: read-out: IC50 (μM) Mean, inhibition of cell proliferation
# T1 sequence (P68400 whole entry): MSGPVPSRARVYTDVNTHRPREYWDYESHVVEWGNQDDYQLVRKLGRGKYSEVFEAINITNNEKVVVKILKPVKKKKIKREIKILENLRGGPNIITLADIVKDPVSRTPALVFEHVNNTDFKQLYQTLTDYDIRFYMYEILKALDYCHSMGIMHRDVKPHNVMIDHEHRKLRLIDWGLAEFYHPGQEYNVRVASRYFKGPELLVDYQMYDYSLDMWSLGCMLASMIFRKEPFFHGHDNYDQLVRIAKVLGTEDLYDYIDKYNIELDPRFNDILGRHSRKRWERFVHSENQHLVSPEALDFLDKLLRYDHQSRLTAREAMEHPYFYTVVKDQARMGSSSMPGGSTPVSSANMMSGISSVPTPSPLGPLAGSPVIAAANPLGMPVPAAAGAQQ
# T1 sequence (P67870 whole entry partner): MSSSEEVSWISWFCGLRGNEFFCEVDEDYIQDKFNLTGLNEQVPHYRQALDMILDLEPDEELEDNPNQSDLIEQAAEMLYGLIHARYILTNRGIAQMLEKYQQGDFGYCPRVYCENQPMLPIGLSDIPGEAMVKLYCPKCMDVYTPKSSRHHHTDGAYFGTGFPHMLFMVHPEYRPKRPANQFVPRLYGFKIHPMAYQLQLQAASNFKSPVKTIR
# T3 sequence (P09619 33-1106): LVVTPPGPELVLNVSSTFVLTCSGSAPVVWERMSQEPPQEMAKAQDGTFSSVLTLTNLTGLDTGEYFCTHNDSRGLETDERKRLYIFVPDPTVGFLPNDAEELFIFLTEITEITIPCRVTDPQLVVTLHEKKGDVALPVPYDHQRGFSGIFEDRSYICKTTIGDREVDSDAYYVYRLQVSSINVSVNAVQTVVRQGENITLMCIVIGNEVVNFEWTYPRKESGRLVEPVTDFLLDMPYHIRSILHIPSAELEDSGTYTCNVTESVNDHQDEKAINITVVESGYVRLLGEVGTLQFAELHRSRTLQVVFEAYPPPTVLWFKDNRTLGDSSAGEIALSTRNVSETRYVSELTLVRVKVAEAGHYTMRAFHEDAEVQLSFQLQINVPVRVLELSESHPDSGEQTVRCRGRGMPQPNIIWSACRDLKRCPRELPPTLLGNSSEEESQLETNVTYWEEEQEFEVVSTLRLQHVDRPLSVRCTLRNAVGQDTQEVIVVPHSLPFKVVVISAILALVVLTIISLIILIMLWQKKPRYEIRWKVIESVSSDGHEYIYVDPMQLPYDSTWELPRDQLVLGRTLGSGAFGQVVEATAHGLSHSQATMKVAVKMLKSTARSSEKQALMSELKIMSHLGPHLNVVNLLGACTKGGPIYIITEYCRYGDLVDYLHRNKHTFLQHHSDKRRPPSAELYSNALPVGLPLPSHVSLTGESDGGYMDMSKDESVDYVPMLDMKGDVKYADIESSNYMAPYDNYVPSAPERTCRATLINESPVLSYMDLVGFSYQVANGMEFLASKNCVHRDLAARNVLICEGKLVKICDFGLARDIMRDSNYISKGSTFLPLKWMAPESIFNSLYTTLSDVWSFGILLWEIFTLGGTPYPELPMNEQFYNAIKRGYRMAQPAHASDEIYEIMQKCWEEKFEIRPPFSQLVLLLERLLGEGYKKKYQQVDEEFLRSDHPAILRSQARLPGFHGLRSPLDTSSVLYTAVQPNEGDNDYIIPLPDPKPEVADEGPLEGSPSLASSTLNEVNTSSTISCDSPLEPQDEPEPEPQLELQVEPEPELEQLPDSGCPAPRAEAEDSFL
# T4 sequence (P00533 25-1210): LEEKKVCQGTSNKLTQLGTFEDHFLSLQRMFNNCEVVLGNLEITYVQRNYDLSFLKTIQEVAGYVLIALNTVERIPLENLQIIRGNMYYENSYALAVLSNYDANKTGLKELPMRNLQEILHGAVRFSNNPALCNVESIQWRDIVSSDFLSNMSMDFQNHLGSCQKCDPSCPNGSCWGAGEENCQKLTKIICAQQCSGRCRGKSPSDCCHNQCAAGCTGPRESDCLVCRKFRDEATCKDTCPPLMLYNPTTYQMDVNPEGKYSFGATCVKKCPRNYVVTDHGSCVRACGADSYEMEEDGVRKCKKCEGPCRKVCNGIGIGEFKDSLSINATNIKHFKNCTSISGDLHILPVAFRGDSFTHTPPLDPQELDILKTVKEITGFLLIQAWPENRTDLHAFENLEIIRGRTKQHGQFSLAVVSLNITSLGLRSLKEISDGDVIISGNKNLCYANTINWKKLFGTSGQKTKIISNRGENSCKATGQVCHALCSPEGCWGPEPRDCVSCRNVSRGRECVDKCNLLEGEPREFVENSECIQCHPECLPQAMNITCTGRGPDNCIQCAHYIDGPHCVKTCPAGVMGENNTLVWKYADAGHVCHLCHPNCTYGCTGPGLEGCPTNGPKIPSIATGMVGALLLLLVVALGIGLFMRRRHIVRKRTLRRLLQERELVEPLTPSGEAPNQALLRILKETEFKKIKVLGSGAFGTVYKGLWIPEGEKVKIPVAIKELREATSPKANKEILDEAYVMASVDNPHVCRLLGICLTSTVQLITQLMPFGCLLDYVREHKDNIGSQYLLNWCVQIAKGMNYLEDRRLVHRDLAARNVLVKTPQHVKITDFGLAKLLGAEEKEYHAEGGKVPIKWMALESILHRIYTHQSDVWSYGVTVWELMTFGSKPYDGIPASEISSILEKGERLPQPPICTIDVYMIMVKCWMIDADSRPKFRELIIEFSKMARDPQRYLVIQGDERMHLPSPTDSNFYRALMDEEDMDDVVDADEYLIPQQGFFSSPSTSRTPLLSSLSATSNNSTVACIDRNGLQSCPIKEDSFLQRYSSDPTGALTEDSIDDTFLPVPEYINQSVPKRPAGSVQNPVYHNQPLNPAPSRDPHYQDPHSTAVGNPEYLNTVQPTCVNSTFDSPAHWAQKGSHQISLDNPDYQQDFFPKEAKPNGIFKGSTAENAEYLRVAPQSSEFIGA
# T2 sequence (P68400 whole entry): as the sequence (P68400 whole entry) above
Compound,"inhibition at 10 µM ([1]; 10 μM compound, DMSO control = 100% CK2 activity, at least three independent experiments) [%]","IC50 ([1]; concentration range 30 μM to 0.01 μM, 100 μM ATP in assay buffer) [µM]",IC50 (LCLC) [µM],IC50 [2] [µM],activity at 20 µM 5637 [%],"IC50 (5637; 5637, read-out: IC50 (μM) Mean, inhibition of cell proliferation) [µM]",IC50 (PDGFR-beta) [µM],IC50 (RT-4) [µM],IC50 (MCF-7) [µM],"IC50 (SISO; read-out: IC50 (μM) Mean, inhibition of cell proliferation) [µM]",activity at 20 µM (SISO) [%],IC50 (EGF-R) [µM],IC50 (A427) [µM],IC50 (DAN-G) [µM]
"O=c1ccc(=O)c2c1c1c(=O)c3ccccc3c1n2Cc1ccccc1 [Compound 6c, 5-Benzyl 5,6,9,10-tetrahydroindeno[1,2-b]indole-6,9,10-trione]",60,1.49,4.14,> 10,0.44,2.75,> 10,> 20,3.27,2.82,5.3,2.5,3.74,> 20
"CC(C)n1c2c(=O)ccc(=O)c2c2c(=O)c3ccccc3c21 [Compound 6b, 5-Isopropyl-5H-indeno[1,2-b]indole-6,9,10-trione]",,,,,-1.73,,> 10,,,,0.28,> 10,,
"CC(C)n1c2c(c3c1-c1ccccc1C3=O)C(=O)CCC2 [Compound 4b, 5-Isopropyl-5,6,7,8-tetrahydroindeno[1,2-b]indole-9,10-dione]",,,,,99,,,,,,100,,,
